Assay results as given in patent EP4755396A1, “TREATMENT OF P53 GENE MUTATION OR DEFECT NEGATIVE CANCER AND TUMOR PATIENTS” (Ascentawits Pharmaceuticals, Ltd., priority 2023, dated 2025).

What was measured:
HPAF-II cells [1] = assay: Cell cycle G2/M arrest, PI staining flow cytometry; type: cell-based; conditions: HPAF-II cells with p53 pathogenic mutation, 0.1 nM AST-3424, 5 µM Nutlin-3, 24 hours (Figure 5)
Protocol: Overview of the experimental process: • 1) H460/HPAF-II cell suspensions were added to a 24-well plate, with a cell density of 100000 /well and 995 µL of medium per well. • 2) The cells were cultured overnight in an incubator at 37°C, 5% CO2. • 3) Compound Treatment
After 24 hours of cell plating, according to the protocol, each cell line experiment was grouped as: Monotherapy: After 24 hours of cell plating, each well was supplied with 5µL of test compounds at different concentrations: 1% DMSO, 5 µM Nutlin-3 and 0.1 nM AST-3424, shaken gently to ensure even mixing, and then placed at 37°C, 5% CO2 in an incubator.
To cells AST-3424 pre-treatment for 2 hours followed by co-treatment with Nutlin-3 for 24 hours.
To cells Nutlin-3 pre-treatment for 2 hours followed by co-treatment with AST -3424 for 24 hours.
Co-treatment with AST-3424 and Nutlin-3 for 24 hours.
4) The cells were digested, centrifuged at 1000 g at 4°C, washed once with pre-cooled PBS, centrifuged at 1000 g at 4°C, and fixed with 1 mL of pre-cooled 70% ethanol at -20°C overnight.
5) The cells were centrifuged at 3000g at 4°C, washed once with pre-cooled PBS (phosphate buffer), centrifuged at 3000g at 4°C. Prepare PI staining solution. […] Flow cytometric detection was performed on the same day, and the proportion of cells in different cell cycle phases was analyzed using FlowJo. […]

[2] = tested on: Ser15-p53, Ser20-p53, Total p53, MDM2 and p21 proteins in H460 cells; assay: WB detection of p53 protein pathway; type: cell-based; conditions: 0.1-1 nM AST-3424, 5 µM Nutlin-3, 24 hours, three experiments (Figures 11-13)
Protocol: Overview of the experimental process: • 1) H460 cell suspension was added to a 24-well plate, with a cell density of 80000 /well and 995 µL of medium per well. • 2) The cells were cultured overnight in an incubator at 37°C, 5% CO2. • 3) Compound Treatment
After 24 hours of cell plating, according to the protocol, each cell line experiment was grouped as: Monotherapy: After 24 hours of cell plating, each well was supplied with 5µL of test compounds at different concentrations: 0.5% DMSO, 0.1nM AST-3424 and 5 µM Nutlin-3, shaken gently to ensure even mixing, and then placed at 37°C, 5% CO2 in an incubator.
Combination therapy: After 24 hours of cell plating, each well was supplied with 5µL of test compounds at different concentrations. The cells were pre-treated with 5µM Nutlin-3 for 2 hours and then were added with 0.1nM AST-3424, shaken gently to ensure even mixing, and then placed at 37°C, 5% CO2 in an incubator.
4) Cell protein lysates were collected for WB analysis.
Combination therapy group: • Adding 0.1 nM AST-3424 for pre-treatment for 2 hours, and then adding 5 µM Nutlin-3 for co-treatment for 22 hours; • Adding 0.3 nM AST-3424 for pre-treatment for 2 hours, and then adding 5 µM Nutlin-3 for co-treatment for 22 hours; • Adding 1 nM AST-3424 for pre-treatment for 2 hours, and then adding 5 µM Nutlin-3 for co-treatment for 22 hours.

[3] = tested on: Total P53, MDM2, P21, AKR1C3 proteins in H460 cells; assay: WB detection, presence and absence of Nutlin-3; type: cell-based, human; conditions: wild-type H460, 5 µM Nutlin-3, 24h, compared with the H460 wild-type DMSO group (Figures 29, 30)
Protocol: • 1) H460 and H460 P53 KO cell suspensions were added to a 24-well plate, with a cell density of 100000 /well and 995 µL of medium per well. • 2) The cells were cultured overnight in an incubator at 37°C, 5% CO2. • 3) Compound Treatment
After 24 hours of cell plating, according to the protocol, each cell line experiment was grouped as: H460 WT untreated group, H460 P53 KO # 1 untreated group, H460 P53 KO # 7 untreated group, H460 P53 KO # 8 untreated group, H460 P53 KO # 12 untreated group, H460 WT 0.1% DMSO treated group, H460 WT 5 µM Nutlin-3 treated group, H460 P53 KO # 1 5 µM Nutlin-3 treated group, H460 P53 KO # 7 5 µM Nutlin-3 treated group, H460 P53 KO # 8 5 µM Nutlin-3 treated group, H460 P53 KO # 12 5 µM Nutlin-3 treated group. […]
• 1) The cell plates were taken back, the medium supernatant was discarded, and the plates were gently rinsed with PBS. […] The cells were scraped off with a cell scraper, lysed on ice for 30 min, and centrifuged at 14000 rpm and 4°C for 10 min. • 2) Protein quantification was performed using the BCA method. […] Solutions A and B of the ECL luminescence solution (SuperSignal West Femto Maximum Sensitivity) were mixed and added to the membrane dried away from water. […]

H460 cells = assay: Cell proliferation experiment (3 days) with different administration sequences; type: cell-based; conditions: after the addition of Nutlin-3, different administration sequences (Figure 2)
Protocol: Further combination therapy experiments with different administration sequences of AST-3424 were carried out. Dosing regimens were set for the experiments.
Monotherapy: Each well was added with AST-3424 alone, Nutlin-3 alone, 5 µL of each compound in different concentrations (400 times) and 5 µL of medium. The cells were treated (DMSO 0.25% and 0.50%).
Combination therapy: Cells were treated with 5 µL each of AST-3424 and Nutlin-3 in different administration sequences: AST-3424 pre-treatment for 2 hours followed by co-treatment with Nutlin-3 for 6 hours; Nutlin-3 pre-treatment for 2 hours followed by co-treatment with AST-3424 for 6 hours; and co-treatment with AST-3424 and Nutlin-3 for 6 hours.

A549 cells = assay: Cell cycle G2/M arrest, PI staining flow cytometry; type: cell-based; conditions: second experiment, 0.3-9 nM AST-3424, 5 µM Nutlin-3, AST-3424 pre-treatment 2 hours (Figure 6)
Protocol: A second experiment was further conducted, in order to further study the effects of different concentrations of AST-3424 alone, Nutlin-3 alone and the two in combination and different administration sequences in the combination therapy on the cell cycle of H460/A549 cells (p53 wild-type, protein normal expression).
The remaining operations were similar to the above experiment, and the compound treatment conditions were as follows:
For A549 cell line, 1% DMSO, adding 5 µM Nutlin-3 for treatment for 22 hours, adding 0.3 nM AST-3424 for treatment for 24 hours, adding 1 nM AST-3424 for treatment for 24 hours, adding 9 nM AST-3424 for treatment for 24 hours, and adding 9 nM AST-3424 for treatment for 24 hours.
For A549 cell line, • Adding 0.3 nM AST-3424 for pre-treatment for 2 hours, and then adding 5 µM Nutlin-3 for co-treatment for 22 hours; • Adding 1 nM AST-3424 for pre-treatment for 2 hours, and then adding 5 µM Nutlin-3 for co-treatment for 22 hours; • Adding 3 nM AST-3424 for pre-treatment for 2 hours, and then adding 5 µM Nutlin-3 for co-treatment for 22 hours; • Adding 9 nM AST-3424 for pre-treatment for 2 hours, and then adding 5 µM Nutlin-3 for co-treatment for 22 hours.

[4] = tested on: γH2AX protein in H460 cells; assay: WB detection of DNA damage marker; type: cell-based; conditions: 0.1-1 nM AST-3424, 5 µM Nutlin-3, 24 hours (Figures 20-22)
Description: In the first, the second and the third experiment of the effect of AST-3424 in combination with Nutlin-3 on Ser15-p53, Ser20-p53, Total p53, MDM2 and p21 proteins in H460 cells in example 5, the applicant also performed WB detection of γH2AX protein, with the results shown in Figures 20, 21 and 22.

HPAF-II cells [5] = assay: In vitro cell proliferation inhibition (96-well, CTG, 72 hours); type: cell-based; conditions: Homo sapiens, monotherapy, applicant's previous cancer cell proliferation inhibition test data

COc1ccc(C2=NC(c3ccc(Cl)cc3)C(c3ccc(Cl)cc3)N2C(=O)N2CCNC(=O)C2)c(OC(C)C)c1 (racemic) [Nutlin-3]
cell cycle (G0/G1, S, G2/M phases) (HPAF-II cells [1]): no effect
phosphorylation of p53 (Ser15-p53 and Ser20-p53), protein expression of total-p53, MDM2 and p21 (WB) [2]: upregulated the expression levels of p53 and its downstream proteins p21 and MDM2
expressions of MDM2, P53, P21 and AKR1C3 proteins (WB) [3]: all upregulated

C[C@H](OP(=O)(N1CC1)N1CC1)c1ccc([N+](=O)[O-])c(Oc2cccc(C(=O)N(C)C)c2)c1 [AST-3424]
proliferation inhibition rate of AST-3424 (H460 cells): significantly increased
G2/M cell cycle arrest (A549 cells): concentration-dependent G2/M cell cycle arrest
γH2AX protein amount, a biomarker of DNA double-strand damage (WB) [4]: upregulate the amount of γH2AX protein

O=[N+]([O-])c1ccc(C(OP(=O)(N2CC2)N2CC2)C(F)(F)F)cc1Oc1ccc(-c2ccc(F)cc2)c(F)c1 (stereo not shown) [AST]
IC50 (HPAF-II cells [5]): 329 nM
